Experimental data taken from ChEMBL document CHEMBL1201862, “PubChem BioAssay data set” (2004).
The source made the active and inactive calls.

Tests used:
Fatty acid synthase [1] = target: T1, Fatty acid synthase (Homo sapiens, UniProt P49327); test: inhibition of human FAS-TE enzyme activity – biochemical, endpoint fluorescence intensity, uHTS hits, dose response (AID 624327); assay type: functional;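 note: fluorescence from hydrolysis of an O-methyl fluorescein acyl ester substrate by the enzyme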
T1 sequence (P49327 whole entry): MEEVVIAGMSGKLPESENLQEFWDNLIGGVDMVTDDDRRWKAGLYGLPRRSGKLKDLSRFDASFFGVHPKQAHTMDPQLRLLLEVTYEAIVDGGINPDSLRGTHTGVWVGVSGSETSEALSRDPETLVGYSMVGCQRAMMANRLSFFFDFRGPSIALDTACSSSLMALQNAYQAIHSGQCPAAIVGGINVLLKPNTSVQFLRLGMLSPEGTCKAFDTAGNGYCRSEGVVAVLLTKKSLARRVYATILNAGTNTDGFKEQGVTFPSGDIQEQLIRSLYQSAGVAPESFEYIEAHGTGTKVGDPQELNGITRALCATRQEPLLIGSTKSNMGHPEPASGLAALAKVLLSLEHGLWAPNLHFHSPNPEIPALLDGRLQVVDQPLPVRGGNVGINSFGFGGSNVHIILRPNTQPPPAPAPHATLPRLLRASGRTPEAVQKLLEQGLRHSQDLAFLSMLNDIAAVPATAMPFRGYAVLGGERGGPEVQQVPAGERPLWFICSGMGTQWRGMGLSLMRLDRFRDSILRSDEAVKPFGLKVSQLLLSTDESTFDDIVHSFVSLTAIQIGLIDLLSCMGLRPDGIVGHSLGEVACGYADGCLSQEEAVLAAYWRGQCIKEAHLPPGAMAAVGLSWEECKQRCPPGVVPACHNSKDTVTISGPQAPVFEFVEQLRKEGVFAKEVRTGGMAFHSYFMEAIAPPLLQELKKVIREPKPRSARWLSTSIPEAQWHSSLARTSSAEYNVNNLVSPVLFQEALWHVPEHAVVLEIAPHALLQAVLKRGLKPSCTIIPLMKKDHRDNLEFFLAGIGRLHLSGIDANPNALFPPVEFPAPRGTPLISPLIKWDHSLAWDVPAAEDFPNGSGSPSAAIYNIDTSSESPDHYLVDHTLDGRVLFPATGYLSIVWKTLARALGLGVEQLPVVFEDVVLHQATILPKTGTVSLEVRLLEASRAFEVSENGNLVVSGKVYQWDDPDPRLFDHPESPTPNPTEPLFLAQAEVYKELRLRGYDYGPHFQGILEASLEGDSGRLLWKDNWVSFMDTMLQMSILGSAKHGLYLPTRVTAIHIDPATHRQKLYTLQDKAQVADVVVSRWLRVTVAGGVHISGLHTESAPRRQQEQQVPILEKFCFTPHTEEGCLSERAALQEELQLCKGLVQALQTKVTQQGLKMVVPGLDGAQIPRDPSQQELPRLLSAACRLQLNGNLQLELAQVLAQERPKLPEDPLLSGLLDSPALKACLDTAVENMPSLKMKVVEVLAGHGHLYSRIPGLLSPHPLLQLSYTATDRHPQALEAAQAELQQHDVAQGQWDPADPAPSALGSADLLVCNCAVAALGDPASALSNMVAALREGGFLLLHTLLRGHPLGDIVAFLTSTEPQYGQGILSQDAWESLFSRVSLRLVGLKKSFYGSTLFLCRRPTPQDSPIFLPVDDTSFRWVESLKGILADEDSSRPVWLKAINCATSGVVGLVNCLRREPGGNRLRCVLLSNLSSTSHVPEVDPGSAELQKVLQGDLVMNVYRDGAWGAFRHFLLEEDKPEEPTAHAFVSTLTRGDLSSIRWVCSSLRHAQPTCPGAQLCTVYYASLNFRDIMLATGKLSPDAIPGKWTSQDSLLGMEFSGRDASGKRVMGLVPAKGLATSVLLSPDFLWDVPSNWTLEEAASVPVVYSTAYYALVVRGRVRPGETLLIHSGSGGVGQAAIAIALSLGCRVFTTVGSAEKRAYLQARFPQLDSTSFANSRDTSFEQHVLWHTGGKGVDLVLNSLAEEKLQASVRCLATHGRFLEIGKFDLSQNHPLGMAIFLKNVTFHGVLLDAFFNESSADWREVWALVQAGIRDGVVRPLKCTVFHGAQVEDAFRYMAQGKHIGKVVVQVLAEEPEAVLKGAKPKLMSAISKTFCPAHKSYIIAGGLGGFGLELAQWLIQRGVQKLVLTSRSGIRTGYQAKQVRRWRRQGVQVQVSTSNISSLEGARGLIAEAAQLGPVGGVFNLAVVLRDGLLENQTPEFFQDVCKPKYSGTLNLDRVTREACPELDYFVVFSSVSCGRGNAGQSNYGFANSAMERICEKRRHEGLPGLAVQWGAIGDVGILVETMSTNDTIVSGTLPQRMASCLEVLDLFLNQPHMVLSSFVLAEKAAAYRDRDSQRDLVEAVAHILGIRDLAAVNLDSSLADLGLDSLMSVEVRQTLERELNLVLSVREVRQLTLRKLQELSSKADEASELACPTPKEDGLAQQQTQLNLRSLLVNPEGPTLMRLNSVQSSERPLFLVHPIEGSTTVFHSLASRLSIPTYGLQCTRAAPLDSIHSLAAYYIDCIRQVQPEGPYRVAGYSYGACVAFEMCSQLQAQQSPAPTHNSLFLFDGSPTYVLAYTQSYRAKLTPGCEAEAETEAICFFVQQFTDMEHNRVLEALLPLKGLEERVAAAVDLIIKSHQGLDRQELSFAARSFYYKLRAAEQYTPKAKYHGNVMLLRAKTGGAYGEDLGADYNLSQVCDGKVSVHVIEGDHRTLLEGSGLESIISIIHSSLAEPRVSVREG

Fatty acid synthase [2] = target: T1, Fatty acid synthase; test: inhibition of human FAS-TE enzyme activity – biochemical, kinetic fluorescence intensity, dose response (AID 624326); assay type: functional;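 note: rate of fluorescence rise from hydrolysis of a fluorogenic O-methyl fluorescein ester substrate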
[3] = Luminescence Cell-Based Dose Response HTS to Identify Activators of Luciferase Translation or Activity in H4 […] Cells. [Related pubchem assays: 1829 (Project Summary), 1814 (Primary HTS)]; assay type: functional
[4] = Luminescence Cell-Based Dose Confirmation HTS to Identify Activators of 5'UTR Stem-Loop Driven Alpha-Synuclein mRNA Translation in H4 Neuroglioblastoma Cells. [Related pubchem assays: 1829 (Project Summary), 1814 (Primary HTS)]; assay type: functional
cells [5] = assay type: functional, cell-based
cells [6] = assay type: functional, cell-based; remark: listed apart in the source
Protein RecA = target: T2, Protein RecA (Mycobacterium tuberculosis, UniProt P9WHJ3); test: Fluorescence Cell-Free Homogeneous Dose Retest to Identify Inhibitors of RecA-Intein Splicing Activity. [Related pubchem assays (depositor defined):AID2097, AID2223, AID489010, AID492950]; assay type: functional
T2 sequence (P9WHJ3 whole entry): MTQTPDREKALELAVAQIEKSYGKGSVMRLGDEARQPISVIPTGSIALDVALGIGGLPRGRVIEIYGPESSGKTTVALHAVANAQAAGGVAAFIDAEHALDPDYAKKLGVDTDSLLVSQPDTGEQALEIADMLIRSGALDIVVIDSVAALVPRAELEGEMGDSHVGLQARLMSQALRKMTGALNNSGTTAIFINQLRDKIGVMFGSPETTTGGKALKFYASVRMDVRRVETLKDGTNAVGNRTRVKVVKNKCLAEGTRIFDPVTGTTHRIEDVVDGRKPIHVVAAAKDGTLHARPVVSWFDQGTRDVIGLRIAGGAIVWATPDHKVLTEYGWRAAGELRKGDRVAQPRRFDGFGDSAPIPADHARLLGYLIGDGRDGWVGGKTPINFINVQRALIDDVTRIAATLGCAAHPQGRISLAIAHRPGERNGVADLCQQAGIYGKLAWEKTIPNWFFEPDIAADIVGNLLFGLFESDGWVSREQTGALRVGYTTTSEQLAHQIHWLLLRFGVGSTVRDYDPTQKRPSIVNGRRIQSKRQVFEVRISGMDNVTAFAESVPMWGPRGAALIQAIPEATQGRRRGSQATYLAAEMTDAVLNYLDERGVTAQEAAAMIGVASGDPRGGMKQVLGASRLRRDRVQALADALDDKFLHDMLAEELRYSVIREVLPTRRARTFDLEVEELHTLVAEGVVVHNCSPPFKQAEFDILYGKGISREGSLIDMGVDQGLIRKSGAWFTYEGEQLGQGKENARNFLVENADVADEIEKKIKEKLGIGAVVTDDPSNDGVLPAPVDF

[7] = target: T3, Replicative DNA helicase DnaB (Mycobacterium tuberculosis, UniProt P9WMR3); test: DnaB intein splicing inhibitors, dose response, biochemical, cell-free fluorescence (AID 449749); assay type: functional
T3 sequence (P9WMR3 whole entry): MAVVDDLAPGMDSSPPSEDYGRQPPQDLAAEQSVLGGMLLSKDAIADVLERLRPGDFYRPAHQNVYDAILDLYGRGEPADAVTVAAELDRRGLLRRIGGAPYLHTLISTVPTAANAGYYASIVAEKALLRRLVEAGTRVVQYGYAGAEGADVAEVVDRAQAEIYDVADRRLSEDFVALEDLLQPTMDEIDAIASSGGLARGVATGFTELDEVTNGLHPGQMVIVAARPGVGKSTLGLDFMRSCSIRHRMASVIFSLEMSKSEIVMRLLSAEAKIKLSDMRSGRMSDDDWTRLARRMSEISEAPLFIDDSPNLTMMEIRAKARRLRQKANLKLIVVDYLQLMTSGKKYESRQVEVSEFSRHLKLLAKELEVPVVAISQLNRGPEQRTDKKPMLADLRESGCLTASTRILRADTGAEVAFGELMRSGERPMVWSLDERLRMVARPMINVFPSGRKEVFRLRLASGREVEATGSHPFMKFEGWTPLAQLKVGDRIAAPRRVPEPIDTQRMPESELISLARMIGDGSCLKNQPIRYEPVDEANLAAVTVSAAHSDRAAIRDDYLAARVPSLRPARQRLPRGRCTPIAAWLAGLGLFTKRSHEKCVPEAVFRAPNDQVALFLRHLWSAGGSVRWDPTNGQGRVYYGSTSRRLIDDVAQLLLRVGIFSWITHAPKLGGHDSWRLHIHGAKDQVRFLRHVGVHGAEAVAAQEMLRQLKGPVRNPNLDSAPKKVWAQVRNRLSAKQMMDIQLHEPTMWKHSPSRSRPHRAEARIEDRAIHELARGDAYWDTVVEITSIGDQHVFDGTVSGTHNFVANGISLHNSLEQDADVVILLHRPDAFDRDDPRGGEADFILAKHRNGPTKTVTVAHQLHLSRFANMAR

[8] = target: T4, Polyadenylate-binding protein 1 (Homo sapiens, UniProt P11940); test: MLLE binding blockers, Cy5 peptide tracer – biochemical, fluorescence polarization, Cy5-PAM2 peptide, secondary, miRNA deadenylation inhibitor project, dose response (AID 602260); assay type: functional; conditions: read-out: IC50_Mean
T4 sequence (P11940 whole entry, the tested form may be a part): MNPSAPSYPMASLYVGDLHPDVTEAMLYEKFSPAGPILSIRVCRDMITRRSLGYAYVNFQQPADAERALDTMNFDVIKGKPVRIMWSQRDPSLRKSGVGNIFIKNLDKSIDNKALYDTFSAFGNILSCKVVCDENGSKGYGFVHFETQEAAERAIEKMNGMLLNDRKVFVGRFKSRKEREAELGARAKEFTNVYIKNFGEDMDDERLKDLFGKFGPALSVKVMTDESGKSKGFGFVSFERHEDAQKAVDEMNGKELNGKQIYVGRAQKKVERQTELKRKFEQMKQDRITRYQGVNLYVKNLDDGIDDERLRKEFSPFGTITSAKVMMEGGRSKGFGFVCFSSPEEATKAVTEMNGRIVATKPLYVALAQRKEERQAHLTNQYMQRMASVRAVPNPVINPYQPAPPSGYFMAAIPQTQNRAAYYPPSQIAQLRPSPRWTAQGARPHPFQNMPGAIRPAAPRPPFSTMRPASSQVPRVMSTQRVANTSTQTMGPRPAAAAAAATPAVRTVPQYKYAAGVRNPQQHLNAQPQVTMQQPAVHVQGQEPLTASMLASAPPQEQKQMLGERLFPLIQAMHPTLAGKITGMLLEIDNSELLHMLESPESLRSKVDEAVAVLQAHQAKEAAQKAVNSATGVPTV

[9] = target: T4, Polyadenylate-binding protein 1; test: MLLE domain peptide-binding blockers, IC50 – biochemical, fluorescence polarization, FITC-PAM2 peptide, dose response (AID 602259); assay type: functional; conditions: read-out: IC50_Mean
H4 = test: Luminescence Cell-Based Dose Response HTS to Identify Activators of 5'UTR Stem-Loop Driven Prion Protein mRNA Translation in H4 Neuroglioblastoma Cells. [Related pubchem assays: 1829 (Project Summary), 1814 (Primary HTS)]; assay type: functional; conditions: Homo sapiens
[10] = target: T5, Heat shock factor protein 1 (Mus musculus, UniProt P38532); test: decrease of HSF1-responsive luciferase luminescence – cell-based, NIH3T3, dose retest, confirmation (AID 2382); assay type: functional;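 note: NIH3T3 fibroblasts with HSF1-driven luciferase reporter stressed by proteasome inhibitor MG132; luminescence from HSF1-driven luciferase expression after 8 hours of MG132 stress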
T5 sequence (P38532 whole entry): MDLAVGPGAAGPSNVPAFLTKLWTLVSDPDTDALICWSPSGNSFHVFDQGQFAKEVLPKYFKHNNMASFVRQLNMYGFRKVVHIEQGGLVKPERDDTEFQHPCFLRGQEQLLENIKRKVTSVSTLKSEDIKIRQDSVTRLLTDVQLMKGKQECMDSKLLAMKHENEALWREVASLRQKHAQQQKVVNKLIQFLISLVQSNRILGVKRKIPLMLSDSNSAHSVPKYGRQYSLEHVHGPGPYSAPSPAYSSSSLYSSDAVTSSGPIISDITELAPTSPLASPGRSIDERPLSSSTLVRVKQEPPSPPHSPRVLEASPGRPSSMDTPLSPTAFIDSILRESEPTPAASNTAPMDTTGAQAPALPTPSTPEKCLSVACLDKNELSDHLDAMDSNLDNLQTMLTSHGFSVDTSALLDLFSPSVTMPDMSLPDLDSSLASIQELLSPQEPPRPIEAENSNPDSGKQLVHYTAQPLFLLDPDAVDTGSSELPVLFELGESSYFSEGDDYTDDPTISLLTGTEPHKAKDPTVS

[11] = non-specific 3'UTR reporter inhibition in Clone20-Shn3RL – cell-based, Renilla luciferase, cherry-picked, counter-screen for Shn3 inhibitor project, dose response (AID 624133); assay type: functional
[12] = reduction of Shn3 3'UTR-driven luciferase in osteoblasts – cell-based, Clone20 osteoblasts, firefly luciferase, cherry-picked, dose response (AID 624132); assay type: functional;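 note: firefly luciferase luminescence from reporter carrying the Shn3 3'UTR in osteoblasts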
[13] = loss of viability in HepG2 cells – cell-based, CellTiter-Glo, cherry-picked, cytotoxicity control for Shn3 inhibitor project, dose response (AID 624134); assay type: functional
Protein skinhead-1 = target: T6, Protein skinhead-1 (Caenorhabditis elegans, UniProt P34707); assay type: functional
T6 sequence (P34707 whole entry): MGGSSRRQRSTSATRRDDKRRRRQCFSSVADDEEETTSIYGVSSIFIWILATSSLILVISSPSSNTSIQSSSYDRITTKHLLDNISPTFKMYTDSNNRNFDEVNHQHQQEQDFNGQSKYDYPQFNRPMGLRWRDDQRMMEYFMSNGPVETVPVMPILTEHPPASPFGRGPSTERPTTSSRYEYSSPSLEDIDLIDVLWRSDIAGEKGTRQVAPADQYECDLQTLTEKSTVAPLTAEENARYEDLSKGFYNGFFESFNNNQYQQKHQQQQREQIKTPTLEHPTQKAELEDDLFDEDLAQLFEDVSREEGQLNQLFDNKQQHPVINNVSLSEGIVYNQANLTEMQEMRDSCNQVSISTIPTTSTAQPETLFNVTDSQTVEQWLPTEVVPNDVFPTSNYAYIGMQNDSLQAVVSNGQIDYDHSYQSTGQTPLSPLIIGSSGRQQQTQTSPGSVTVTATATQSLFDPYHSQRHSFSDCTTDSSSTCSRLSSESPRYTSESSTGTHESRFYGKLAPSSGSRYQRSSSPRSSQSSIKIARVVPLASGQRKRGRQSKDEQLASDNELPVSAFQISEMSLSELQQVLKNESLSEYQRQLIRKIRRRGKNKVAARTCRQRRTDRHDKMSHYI

O=[N+]([O-])c1cccc(-c2ccc(SCc3cccnc3)nn2)c1
IC50 (Fatty acid synthase [1]): 8.53 µM (active) | IC50 (Fatty acid synthase [2]): 8.99 µM (active)

Clc1ccc(Nc2nc3cccnc3s2)cc1
EC50 [3]: 0.333 µM (active) | EC50 [4]: 0.341 µM (active)

O=S(=O)(CCSc1nc2ccccc2s1)c1nc2ccccc2s1
EC50 (cells [5]): > 350 µM (not active) | EC50 (cells [6]): > 350 µM (not active) | EC50 (Protein RecA): 2.22 µM (active) | AC50 [7]: 2.29 µM (active)

CC(CC(=O)Nc1nnc(C(C)(C)C)s1)c1ccccc1 (stereo not given)
IC50 [8]: > 66 µM (inactive) | IC50 [9]: > 66 µM (inactive)

CC(C)(C)NC(=O)/C(=C\C=C\c1ccccc1)NC(=O)c1ccc([N+](=O)[O-])cc1
IC50 (Fatty acid synthase [1]): 0.491 µM (active) | IC50 (Fatty acid synthase [2]): 0.462 µM (active)

Cc1ccc(C2CCN(C(S)=NC(C)(C)C)C2)cc1 (stereo not given)
EC50 [3]: 18.1 µM (active) | EC50 (H4): 62.4 µM (active) | EC50 [10]: > 195 µM (not active) | EC50 [4]: 14.9 µM (active)

CC(=O)c1ccc(NC(S)=NCCc2ccc(S(N)(=O)=O)cc2)cc1
IC50 [8]: > 66 µM (inactive) | IC50 [9]: > 66 µM (inactive)

COC(=O)C1=C(C(=O)OC)[C@@H]2N(Cc3ccccc3)c3ccccc3[C@@]23C[C@@H](C(=O)OC)N(C(=O)c2ccc(Br)cc2)C3=N1
AC50 [11]: 23.7 µM (active) | AC50 [12]: 8.52 µM (active) | AC50 [13]: 34.8 µM (active)

COc1cccc(OCCn2cc(C(C)=O)c3ccccc32)c1
AC50 [11]: 7.82 µM (active) | AC50 [12]: 1.85 µM (active) | AC50 [13]: 7.55 µM (active)

O=C(Nc1ccccc1[N+](=O)[O-])c1ccc(S(=O)(=O)N2CCCC2)cc1
EC50 [3]: 9.21 µM (active) | EC50 (H4): 14.6 µM (active) | EC50 [4]: 10.8 µM (active)

O=C(NNS(=O)(=O)c1ccc([N+](=O)[O-])cc1)c1ccc2ccccc2c1O
IC50 (Fatty acid synthase [1]): 7.74 µM (active) | IC50 (Fatty acid synthase [2]): 6.99 µM (active)

c1ccc(P(c2ccccc2)c2ccccn2)cc1
IC50 [8]: > 66 µM (inactive) | IC50 [9]: > 66 µM (inactive)

COc1cc(C)c(NC(=O)COc2cccc3c2OC(C)(C)C3)cc1OC
AC50 [11]: 11.3 µM (active) | AC50 [12]: 7.06 µM (active) | AC50 [13]: 65.7 µM (active)

COc1cccc(C(=O)NCC(=O)N2CCC3(CC2)NCCc2[nH]cnc23)c1
IC50 (Protein skinhead-1): > 100 µM (inactive)
